According to ChEMBL document CHEMBL1208724, “A new group of oxime carbamates as reversible inhibitors of fatty acid amide hydrolase” (Bioorg Med Chem Lett, 2010):

Columns and labels:
Cannabinoid receptor 1 = Cannabinoid receptor 1 (Mus musculus, UniProt P47746); assay: Inhibition of mouse brain CB1 receptor
[1] = Inhibition of mouse brain AMT
[2] = molecular target: N-acyl-phosphatidylethanolamine-hydrolyzing phospholipase D (Mus musculus, UniProt Q8BH82); assay: Inhibition of mouse NAPEPLD
Adenosine receptor A1 = Adenosine receptor A1 (Homo sapiens, UniProt P30542); assay: Displacement of [3H]DPCPX from human recombinant A1 receptor expressed in CHO cells; assay type: cell-based
Adenosine receptor A2a = Adenosine receptor A2a (Homo sapiens, UniProt P29274); assay: Displacement of [3H]CGS21680 from human recombinant A2A receptor expressed in HEK293 cells; assay type: cell-based
Adenosine receptor A2a, sequence (P29274 whole entry): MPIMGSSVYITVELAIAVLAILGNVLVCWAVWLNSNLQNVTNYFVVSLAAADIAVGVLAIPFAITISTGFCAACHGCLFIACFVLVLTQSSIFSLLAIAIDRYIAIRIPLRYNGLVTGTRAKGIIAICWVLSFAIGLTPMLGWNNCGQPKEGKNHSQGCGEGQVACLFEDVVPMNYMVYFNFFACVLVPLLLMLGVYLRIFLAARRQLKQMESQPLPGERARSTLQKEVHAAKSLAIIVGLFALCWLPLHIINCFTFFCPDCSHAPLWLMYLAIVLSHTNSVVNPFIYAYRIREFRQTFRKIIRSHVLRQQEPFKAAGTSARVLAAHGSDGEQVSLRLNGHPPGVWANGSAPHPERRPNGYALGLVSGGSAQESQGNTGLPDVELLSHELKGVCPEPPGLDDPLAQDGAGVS

[3] = molecular target: Adrenergic receptor alpha-2 (Rattus norvegicus, UniProt P22086+P19328+P22909); assay: Displacement of [3H][…] from alpha2 receptor in rat cerebral cortex; assay type: tissue-based
[4] = molecular target: Beta-1 adrenergic receptor (Homo sapiens, UniProt P08588); assay: Displacement of [3H](-)CGP 12177 from human recombinant beta-1 receptor expressed in HEK293 cells; assay type: cell-based
[5] = molecular target: Type-1 angiotensin II receptor (Homo sapiens, UniProt P30556); assay: Displacement of [125I][Sar1,Ile8]-AT II from human recombinant AT1 receptor expressed in HEK293 cells; assay type: cell-based
Type-1 angiotensin II receptor, sequence (P30556 whole entry): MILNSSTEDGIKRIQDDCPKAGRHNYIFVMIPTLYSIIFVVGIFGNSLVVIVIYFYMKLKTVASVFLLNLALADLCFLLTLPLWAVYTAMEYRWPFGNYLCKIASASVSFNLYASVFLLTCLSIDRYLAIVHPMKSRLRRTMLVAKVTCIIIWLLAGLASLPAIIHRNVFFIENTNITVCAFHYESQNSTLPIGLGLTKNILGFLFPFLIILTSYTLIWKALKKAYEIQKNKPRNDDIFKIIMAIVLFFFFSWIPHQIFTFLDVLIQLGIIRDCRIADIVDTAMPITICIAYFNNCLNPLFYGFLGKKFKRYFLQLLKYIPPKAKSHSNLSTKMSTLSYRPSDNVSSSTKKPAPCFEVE

[6] = molecular target: Cholecystokinin receptor type A (Homo sapiens, UniProt P32238); assay: Displacement of [125I]CCK-8 from human recombinant CCKA receptor expressed in CHO cells; assay type: cell-based
D(1A) dopamine receptor = D(1A) dopamine receptor (Homo sapiens, UniProt P21728); assay: Displacement of [3H]SCH 23390 from human recombinant dopamine D1 receptor expressed in CHO cells; assay type: cell-based
D(2) dopamine receptor = D(2) dopamine receptor (Homo sapiens, UniProt P14416); assay: Displacement of [3H]spiperone from human recombinant dopamine D2S receptor expressed in HEK293 cells; assay type: cell-based
Endothelin-1 receptor = Endothelin-1 receptor (Homo sapiens, UniProt P25101); assay: Displacement of [125I]endothelin-1 from human recombinant ETA receptor expressed in CHO cells; assay type: cell-based
[7] = Displacement of [3H]GABA from GABA receptor in rat cerebral cortex; assay type: tissue-based
Galanin receptor type 2 = Galanin receptor type 2 (Homo sapiens, UniProt O43603); assay: Displacement of [125I]Galanin from human recombinant GAL2 receptor expressed in CHO cells; assay type: cell-based
Galanin receptor type 2, sequence (O43603 whole entry): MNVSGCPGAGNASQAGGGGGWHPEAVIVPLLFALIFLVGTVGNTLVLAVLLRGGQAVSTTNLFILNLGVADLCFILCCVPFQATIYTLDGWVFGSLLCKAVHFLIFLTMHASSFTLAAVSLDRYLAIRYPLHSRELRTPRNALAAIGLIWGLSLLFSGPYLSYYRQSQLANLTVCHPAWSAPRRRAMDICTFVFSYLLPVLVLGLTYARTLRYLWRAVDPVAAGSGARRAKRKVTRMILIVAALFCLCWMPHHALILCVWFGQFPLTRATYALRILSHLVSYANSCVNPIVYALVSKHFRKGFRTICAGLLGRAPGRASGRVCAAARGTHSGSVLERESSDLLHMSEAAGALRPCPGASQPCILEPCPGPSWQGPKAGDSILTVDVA

Histamine H2 receptor = Histamine H2 receptor (Homo sapiens, UniProt P25021); assay: Displacement of [125I]APT from human recombinant histamine H2 receptor expressed in CHO cells; assay type: cell-based
Melanocortin receptor 4 = Melanocortin receptor 4 (Homo sapiens, UniProt P32245); assay: Displacement of [125I]NDP-a-MSH from human recombinant MC4 receptor expressed in CHO cells; assay type: cell-based
Melanocortin receptor 4, sequence (P32245 whole entry): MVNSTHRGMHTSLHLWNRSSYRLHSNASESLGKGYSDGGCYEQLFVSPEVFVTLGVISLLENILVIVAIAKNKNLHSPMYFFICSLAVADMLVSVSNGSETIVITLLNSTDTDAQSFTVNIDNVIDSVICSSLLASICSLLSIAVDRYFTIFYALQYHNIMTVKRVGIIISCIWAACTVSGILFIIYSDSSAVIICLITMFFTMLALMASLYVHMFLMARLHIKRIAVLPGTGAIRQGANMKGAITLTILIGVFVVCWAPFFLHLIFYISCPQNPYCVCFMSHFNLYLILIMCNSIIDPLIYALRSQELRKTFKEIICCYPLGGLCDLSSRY

[8] = molecular target: Muscarinic acetylcholine receptor M2 (Homo sapiens, UniProt P08172); assay: Displacement of [3H]AF-DX 384 from human recombinant muscarinic M2 receptor expressed in CHO cells; assay type: cell-based
Substance-K receptor = Substance-K receptor (Homo sapiens, UniProt P21452); assay: Displacement of [125I]NKA from human recombinant NK2 receptor expressed in CHO cells; assay type: cell-based
Neuromedin-K receptor = Neuromedin-K receptor (Homo sapiens, UniProt P29371); assay: Displacement of [3H]SR 142801 from human recombinant NK3 receptor expressed in CHO cells; assay type: cell-based
Neuromedin-K receptor, sequence (P29371 whole entry): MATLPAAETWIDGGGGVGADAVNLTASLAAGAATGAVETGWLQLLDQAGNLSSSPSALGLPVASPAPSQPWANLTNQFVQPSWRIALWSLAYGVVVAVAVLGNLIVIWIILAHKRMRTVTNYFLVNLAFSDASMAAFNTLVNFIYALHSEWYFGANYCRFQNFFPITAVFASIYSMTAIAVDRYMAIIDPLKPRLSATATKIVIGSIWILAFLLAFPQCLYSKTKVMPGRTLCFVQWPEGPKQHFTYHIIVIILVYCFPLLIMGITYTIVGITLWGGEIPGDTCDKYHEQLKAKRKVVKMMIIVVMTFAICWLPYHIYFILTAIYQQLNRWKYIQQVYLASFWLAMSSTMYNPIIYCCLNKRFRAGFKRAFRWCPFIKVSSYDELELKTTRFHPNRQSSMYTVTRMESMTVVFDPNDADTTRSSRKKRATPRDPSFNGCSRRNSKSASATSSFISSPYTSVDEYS

[9] = molecular target: Neuropeptide Y receptor type 2 (Homo sapiens, UniProt P49146); assay: Displacement of [125I]peptide YY from human recombinant Y2 receptor expressed in KAN-TS cells; assay type: cell-based
[10] = molecular target: Neurotensin receptor type 1 (Homo sapiens, UniProt P30989); assay: Displacement of [125I]Tyr3-neurotensin from human recombinant NT1 receptor expressed in H recombinant CHO cells; assay type: cell-based
[11] = molecular target: Kappa-type opioid receptor (Rattus norvegicus, UniProt P34975); assay: Displacement of [3H]U69593 from rat recombinant kappa opioid receptor expressed in CHO cells; assay type: cell-based
Mu-type opioid receptor = Mu-type opioid receptor (Homo sapiens, UniProt P35372); assay: Displacement of [3H]DAMGO from human recombinant mu opioid receptor expressed in HEK293 cells; assay type: cell-based
Nociceptin receptor = Nociceptin receptor (Homo sapiens, UniProt P41146); assay: Displacement of [3H]nociceptin from human recombinant ORL1 receptor expressed in H recombinant HEK293 cells; assay type: cell-based
Nociceptin receptor, sequence (P41146 whole entry): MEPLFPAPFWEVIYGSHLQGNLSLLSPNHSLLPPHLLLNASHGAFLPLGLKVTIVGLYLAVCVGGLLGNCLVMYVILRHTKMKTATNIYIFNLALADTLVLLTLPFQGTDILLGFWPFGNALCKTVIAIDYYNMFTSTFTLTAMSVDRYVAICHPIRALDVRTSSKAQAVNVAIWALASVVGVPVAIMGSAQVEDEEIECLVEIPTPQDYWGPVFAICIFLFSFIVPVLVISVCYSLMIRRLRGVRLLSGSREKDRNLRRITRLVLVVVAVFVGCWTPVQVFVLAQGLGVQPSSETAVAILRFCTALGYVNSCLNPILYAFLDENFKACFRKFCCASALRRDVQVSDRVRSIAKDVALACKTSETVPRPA

Thromboxane A2 receptor = Thromboxane A2 receptor (Homo sapiens, UniProt P21731); assay: Displacement of [3H]SQ 29548 from human recombinant TXA2 receptor expressed in HEK293 cells; assay type: cell-based
[12] = molecular target: 5-hydroxytryptamine receptor 1A (Homo sapiens, UniProt P08908); assay: Displacement of [3H]8-OH-DPAT from human recombinant 5HT1A receptor expressed in HEK293 cells; assay type: cell-based
5-hydroxytryptamine receptor 1A, sequence (P08908 whole entry): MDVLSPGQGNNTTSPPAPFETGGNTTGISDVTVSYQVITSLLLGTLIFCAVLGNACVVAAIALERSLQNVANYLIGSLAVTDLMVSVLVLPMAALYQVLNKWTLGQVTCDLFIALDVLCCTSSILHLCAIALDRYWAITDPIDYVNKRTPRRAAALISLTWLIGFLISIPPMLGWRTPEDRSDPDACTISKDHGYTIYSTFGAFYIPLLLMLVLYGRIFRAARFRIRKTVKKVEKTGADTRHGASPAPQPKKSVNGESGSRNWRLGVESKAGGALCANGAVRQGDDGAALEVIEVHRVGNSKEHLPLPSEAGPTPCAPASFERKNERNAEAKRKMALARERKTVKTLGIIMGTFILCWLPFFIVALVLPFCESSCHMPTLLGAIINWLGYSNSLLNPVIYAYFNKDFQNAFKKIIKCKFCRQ

[13] = molecular target: 5-hydroxytryptamine receptor 1B (Rattus norvegicus, UniProt P28564); assay: Displacement of [125I]CYP from 5HT1B receptor expressed in rat cerebral cortex; assay type: tissue-based
5-hydroxytryptamine receptor 1B, sequence (P28564 whole entry): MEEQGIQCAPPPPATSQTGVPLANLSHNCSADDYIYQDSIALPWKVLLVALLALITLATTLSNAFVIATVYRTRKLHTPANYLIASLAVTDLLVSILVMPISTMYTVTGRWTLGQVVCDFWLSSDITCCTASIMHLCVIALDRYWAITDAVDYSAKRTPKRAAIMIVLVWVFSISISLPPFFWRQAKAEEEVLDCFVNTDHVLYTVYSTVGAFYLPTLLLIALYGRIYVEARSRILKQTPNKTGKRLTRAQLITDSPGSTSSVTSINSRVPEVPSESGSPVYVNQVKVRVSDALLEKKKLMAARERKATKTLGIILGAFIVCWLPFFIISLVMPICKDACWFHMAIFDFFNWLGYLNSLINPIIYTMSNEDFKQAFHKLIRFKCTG

[14] = molecular target: 5-hydroxytryptamine receptor 6 (Homo sapiens, UniProt P50406); assay: Displacement of [3H]LSD from human recombinant 5HT6 receptor expressed in CHO cells; assay type: cell-based
5-hydroxytryptamine receptor 6, sequence (P50406 whole entry): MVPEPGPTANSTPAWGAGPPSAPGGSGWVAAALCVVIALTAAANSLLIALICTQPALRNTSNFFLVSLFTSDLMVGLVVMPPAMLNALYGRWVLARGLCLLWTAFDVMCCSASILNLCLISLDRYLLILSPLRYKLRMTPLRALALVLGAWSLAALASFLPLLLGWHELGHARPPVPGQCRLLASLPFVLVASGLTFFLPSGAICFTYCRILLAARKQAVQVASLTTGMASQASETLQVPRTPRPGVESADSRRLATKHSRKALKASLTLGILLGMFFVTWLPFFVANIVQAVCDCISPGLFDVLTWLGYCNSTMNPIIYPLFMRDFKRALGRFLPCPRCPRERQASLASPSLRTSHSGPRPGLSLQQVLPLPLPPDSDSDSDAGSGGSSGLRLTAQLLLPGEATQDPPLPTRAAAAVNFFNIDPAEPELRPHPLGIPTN

[15] = molecular target: 5-hydroxytryptamine receptor 7 (Homo sapiens, UniProt P34969); assay: Displacement of [3H]LSD from human recombinant 5HT7 receptor expressed in CHO cells; assay type: cell-based
5-hydroxytryptamine receptor 7, sequence (P34969 whole entry): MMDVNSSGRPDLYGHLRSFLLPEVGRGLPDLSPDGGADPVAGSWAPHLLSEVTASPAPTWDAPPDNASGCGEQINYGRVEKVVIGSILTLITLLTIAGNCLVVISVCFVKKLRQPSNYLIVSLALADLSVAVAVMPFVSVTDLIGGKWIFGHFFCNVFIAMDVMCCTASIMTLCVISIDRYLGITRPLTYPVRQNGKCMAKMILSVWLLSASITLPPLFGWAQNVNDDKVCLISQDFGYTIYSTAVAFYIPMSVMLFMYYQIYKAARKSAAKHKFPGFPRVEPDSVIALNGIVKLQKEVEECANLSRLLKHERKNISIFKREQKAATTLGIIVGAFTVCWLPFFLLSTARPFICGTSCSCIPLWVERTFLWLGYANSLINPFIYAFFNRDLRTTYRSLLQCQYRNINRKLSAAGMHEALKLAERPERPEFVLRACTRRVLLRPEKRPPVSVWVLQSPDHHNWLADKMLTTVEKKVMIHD

[16] = Displacement of [125I]Tyr11-somatostatin-14 from human recombinant sst receptor expressed in AtT-20 cells; assay type: cell-based; conditions: att20
[17] = molecular target: Small conductance calcium-activated potassium channel protein 1 (Rattus norvegicus, UniProt P70606); assay: Displacement of [125I]apamin from SK+Ca channel in rat cerebral cortex; assay type: tissue-based
[18] = molecular target: Sodium-dependent dopamine transporter (Homo sapiens, UniProt Q01959); assay: Displacement of [3H]BTCP from human recombinant dopamine transporter expressed in CHO cells; assay type: cell-based
Sodium-dependent dopamine transporter, sequence (Q01959 whole entry): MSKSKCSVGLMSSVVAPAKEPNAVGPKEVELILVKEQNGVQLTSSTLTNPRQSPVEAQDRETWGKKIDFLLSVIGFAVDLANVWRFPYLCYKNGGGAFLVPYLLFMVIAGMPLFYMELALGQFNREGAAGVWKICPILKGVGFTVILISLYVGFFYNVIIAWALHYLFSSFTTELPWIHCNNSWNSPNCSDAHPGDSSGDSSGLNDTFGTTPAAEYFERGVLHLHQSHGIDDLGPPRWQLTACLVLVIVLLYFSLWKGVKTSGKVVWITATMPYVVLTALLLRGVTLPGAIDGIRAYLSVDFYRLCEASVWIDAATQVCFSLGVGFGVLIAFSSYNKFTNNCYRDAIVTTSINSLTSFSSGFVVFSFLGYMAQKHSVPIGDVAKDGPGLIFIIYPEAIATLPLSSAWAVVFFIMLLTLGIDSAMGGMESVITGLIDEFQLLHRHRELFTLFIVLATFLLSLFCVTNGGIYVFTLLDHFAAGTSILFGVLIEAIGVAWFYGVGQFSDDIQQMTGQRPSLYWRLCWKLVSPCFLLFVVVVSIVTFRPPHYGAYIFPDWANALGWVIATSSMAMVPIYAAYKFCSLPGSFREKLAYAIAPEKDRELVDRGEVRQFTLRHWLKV

[19] = molecular target: Sodium-dependent serotonin transporter (Homo sapiens, UniProt P31645); assay: Displacement of [3H]imipramine from human recombinant 5HT transporter expressed in CHO cells; assay type: cell-based

In the case of `C/C(=N\OC(=O)Nc1ccccc1)c1cccc(-c2cccs2)c1`, the IC50 (Cannabinoid receptor 1) is reported as greater than 10 µM, the IC50 [1] is reported as 100 nM and the IC50 [2] is reported as greater than 10 µM. For the same compound, the IC50 (Adenosine receptor A1) was greater than 10 µM, the IC50 (Adenosine receptor A2a) was greater than 10 µM and the IC50 [3] was greater than 10 µM. The IC50 [4] was greater than 10 µM, the IC50 [5] was greater than 10 µM and the IC50 [6] was 1000 nM. For the same compound, the IC50 (D(1A) dopamine receptor) was greater than 10 µM, the IC50 (D(2) dopamine receptor) was greater than 10 µM and the IC50 (Endothelin-1 receptor) was greater than 10 µM. The IC50 [7] was greater than 10 µM, the IC50 (Galanin receptor type 2) was greater than 10 µM and the IC50 (Histamine H2 receptor) was greater than 10 µM. The IC50 (Melanocortin receptor 4) was greater than 10 µM, the IC50 [8] was greater than 10 µM and the IC50 (Substance-K receptor) was greater than 10 µM. For the same compound, the IC50 (Neuromedin-K receptor) was greater than 10 µM, the IC50 [9] was greater than 10 µM and the IC50 [10] was greater than 10 µM. The IC50 [11] was greater than 10 µM, the IC50 (Mu-type opioid receptor) was greater than 10 µM and the IC50 (Nociceptin receptor) was greater than 10 µM. For the same compound, the IC50 (Thromboxane A2 receptor) was greater than 10 µM, the IC50 [12] was 1000 nM and the IC50 [13] was greater than 10 µM. The IC50 [14] was greater than 10 µM, the IC50 [15] was greater than 10 µM and the IC50 [16] was greater than 10 µM. It also gave an IC50 [17] greater than 10 µM, an IC50 [18] greater than 10 µM and an IC50 [19] greater than 10 µM.
